What was measured:
[1] = Human microsomal stability assay; type: in vitro ADME; conditions: liver microsomes, 0.5 mg microsomal protein/ml, 10 μM compound, 37° C., read-out: Human liver microsome clearance
Experimental: Compound stability towards human liver microsomes was determined as follows: Human liver microsomal suspension (1 ml) prepared in reaction buffer at a concentration of 0.5 mg microsomal protein/ml was preincubated for 3 min at 37° C. with a NADPH-generating system (10 mM glucose 6-phosphate, 1 mM NADP+, and 1 unit/ml yeast glucose-6-phosphate dehydrogenase). The final compounds concentration is 10 μM. Boiled microsomes (5 min) served as a control. Samples (50 μl) were then taken after 0, 5, 15, 30, 45, 120 min, into 200 μl acetonitrile, centrifuged for 15 min at 8000×g to remove the protein pellet. Samples were analyzed for parent compound by HPLC. Method development: All samples for metabolic stability experiments were analyzed by HPLC. Only parent compounds were analyzed. Data analysis: The percentages of the parent compounds remaining was defined as the ratio of the parent compounds peak area at a specific point and the peak area at the first time point multiplied by 100%. The metabolic stability was evaluated by plotting the natural logarithm of the percentage parent compounds remaining versus time and performing linear regression and finally reported as clearance [μl/min/mg protein] which is reversed proportional to compound stability. Applying this protocol, Microsomal stability of examples and reference compounds was determined. (Table 7)

[2] = Aqueous solubility assay, Protocol A, nephelometry method; type: physicochemical; conditions: PBS with 5% DMSO, aqueous with cosolvent or surfactant or cyclodextrin, kinetic from dmso stock, PBS pH 7.4, 5% DMSO, 23° C., 24 hours, read-out: Aqueous solubility pH 7.4
Experimental: Aqueous solubility of compounds was determined by nephelometry or by the shake-flask method as follows:
Protocol A, nephelometry method:
Solubility of compounds was measured in PBS (pH 7.4), 5% DMSO at 23° C. Nepheloskan Ascent (Thermo Electron Corporation) nephelometer was used for measurement of light scattering. Tested compounds were dissolved in DMSO to 10 mM. Prior to measurement the compounds were further diluted with PBS in the wells to final compound concentrations of 100, 70, 50, 35, 25, 17, 12 and <10 μg/ml.
The plates were incubated at room temperature for 24 hours to reach equilibrium and the scattered light was measured. Assay validation: Aqueous solubility of acetylsalicylic acid was determined to validate the assay.
The following compounds of Table 2 exemplify such solubility with “−−” meaning solubility<2 μM, “+” meaning 2 μM solubility 100 μM and “++” meaning solubility

microsomal CLint at 10 μM [1] | solubility at 24 h [2] | Structure (SMILES)
100 µL/min/mg | < 2 µM | CC(C)c1onc(-c2c(Cl)cccc2Cl)c1COc1ccc(/C=C/c2cccc(C(=O)O)c2)c(Cl)c1 [Compound B, reference compound]
62 µL/min/mg | > 100 µM | Cc1nc(OCc2c(-c3c(Cl)cccc3Cl)noc2C(C)C)ccc1N(C)S(=O)(=O)c1ccc(C(=O)O)cc1 [Example 4, 4-(N-(6-((3-(2,6-dichlorophenyl)-5-isopropylisoxazol-4-yl)methoxy)-2-methylpyridin-3-yl)—N-methylsulfamoyl)benzoic acid]
14 µL/min/mg | > 100 µM | CC(C)c1onc(-c2c(Cl)cccc2Cl)c1COc1ccc(N(C)C(=O)c2ccc(C(=O)O)cc2)c(C(F)(F)F)n1 [Example 7, N-{6-[3-(2,6-dichloro-phenyl)-5-isopropyl-isoxazol-4-ylmethoxy]-2-trifluoromethyl-pyridin-3-yl}-N-methyl-terephthalamic acid]
